Assay results taken from US9487510B2, “Substituted heterocyclic acetamides as kappa opioid receptor (KOR) agonists” (Dr. Reddy's Laboratories Ltd., priority 2012, dated 2016).
Counter-ions that a name gives are not always drawn.

Target: human KOR receptor (Homo sapiens, UniProt P41145)
Test: IP-One HTRF assay, potency of KOR agonists, dose-response in transiently transfected COS-7 cells
Format: cell-based

Sequence of human KOR receptor (P41145 whole entry): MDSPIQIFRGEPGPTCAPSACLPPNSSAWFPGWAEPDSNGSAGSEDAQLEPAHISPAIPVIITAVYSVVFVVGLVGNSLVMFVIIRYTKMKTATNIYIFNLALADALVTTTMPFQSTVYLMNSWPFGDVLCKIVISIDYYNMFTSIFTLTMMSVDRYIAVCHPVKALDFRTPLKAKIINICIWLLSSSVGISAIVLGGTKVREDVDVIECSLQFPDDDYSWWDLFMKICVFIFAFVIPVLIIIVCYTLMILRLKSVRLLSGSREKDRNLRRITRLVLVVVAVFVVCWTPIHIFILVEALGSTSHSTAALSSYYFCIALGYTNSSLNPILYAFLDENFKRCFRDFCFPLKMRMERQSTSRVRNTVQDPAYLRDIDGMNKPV

CCN(CC)C(=O)c1cccc([C@@H](CN2CC[C@H](O)C2)N(C)C(=O)Cc2ccc3c(c2)NC(=O)C3)c1 [Example 39, N,N-diethyl-3-((S)-2-((S)-3-hydroxypyrrolidin-1-yl)-1-(N-methyl-2-(2-oxoindolin-6-yl)acetamido)ethyl)benzamide]
EC50: ≤ 50 nM

CC(C)(C(=O)N[C@H](CN1CC[C@H](O)C1)c1ccccc1)c1ccc2oc(=O)[nH]c2c1 [Example 55, N-((S)-2-((S)-3-hydroxypyrrolidin-1-yl)-1-phenylethyl)-2-methyl-2-(2-oxo-2,3-dihydrobenzo[d]oxazol-5-yl)propanamide]
EC50: ≤ 50 nM

Cc1ncc(-c2cccc([C@@H](CN3CC[C@H](O)C3)N(C)C(=O)Cc3ccc4c(c3)NC(=O)C4)c2)s1 [Example 219, N-((S)-2-((S)-3-hydroxypyrrolidin-1-yl)-1-(3-(2-methylthiazol-5-yl)phenyl)ethyl)-N-methyl-2-(2-oxoindolin-6-yl)acetamide]
EC50: ≤ 50 nM

CN(C(=O)Cc1ccc2c(c1)NC(=O)CS2(=O)=O)[C@H](CN1CC[C@H](O)C1)c1cccc(OC(F)F)c1 [Example 11, N-((S)-1-(3-(difluoromethoxy)phenyl)-2-((S)-3-hydroxypyrrolidin-1-yl)ethyl)-2-(1,1-dioxido-3-oxo-3,4-dihydro-2H-benzo[b][1,4]thiazin-6-yl)-N-methylacetamide]
EC50: ≥ 1000 nM

CN(C(=O)Cc1ccc2c(c1)NC(=O)C2)[C@H](CN1CC[C@H](O)C1)c1cccc(C(N)=O)c1 [Example 24, 3-((S)-2-((S)-3-hydroxypyrrolidin-1-yl)-1-(N-methyl-2-(2-oxoindolin-6-yl)acetamido)ethyl) benzamide]
EC50: ≤ 50 nM

CN(C(=O)Cc1ccc2oc(=O)n(CC(=O)O)c2c1)[C@H](CN1CC[C@H](O)C1)c1ccccc1 [Example 86]
EC50: ≤ 50 nM

CN(C(=O)Cc1ccc2c(c1)NC(=O)CS2(=O)=O)[C@H](CN1CC[C@H](O)C1)c1cc(F)cc(OCC(F)(F)F)c1 [Example 149, 2-(1,1-dioxido-3-oxo-3,4-dihydro-2H-benzo[b][1,4]thiazin-6-yl)-N-((S)-1-(3-fluoro-5-(2,2,2-trifluoroethoxy)phenyl)-2-((S)-3-hydroxypyrrolidin-1-yl)ethyl)-N-methylacetamide]
EC50: ≤ 50 nM

O=C1CSc2ccc(CC(=O)N[C@H](CN3CC[C@H](O)C3)c3ccccc3)cc2N1 [Example 128, N-((S)-2-((S)-3-hydroxypyrrolidin-1-yl)-1-phenylethyl)-2-(3-oxo-3,4-dihydro-2H-benzo[b][1,4]thiazin-6-yl)acetamide]
EC50: ≤ 50 nM

CCN(CC)C(=O)c1cccc([C@@H](CN2CC[C@H](O)C2)N(C)C(=O)Cc2ccc3c(c2)NS(=O)(=O)C3)c1 [Example 208, 3-((S)-1-(2-(2,2-dioxido-1,3-dihydrobenzo[c]isothiazol-6-yl)-N-methylacetamido)-2-((S)-3-hydroxypyrrolidin-1-yl)ethyl)-N,N-diethylbenzamide]
EC50: ≤ 50 nM

CN(C(=O)Cc1ccc2sc(=O)[nH]c2c1)[C@H](CN1CC[C@H](O)C1)c1cccc(OCC(N)=O)c1 [Example 170, N-((S)-1-(3-(2-amino-2-oxoethoxy)phenyl)-2-((S)-3-hydroxypyrrolidin-1-yl)ethyl)-N-methyl-2-(2-oxo-2,3-dihydrobenzo[d]thiazol-5-yl)acetamide]
EC50: ≤ 50 nM

CN(C(=O)Cc1ccc2c(c1)NC(=O)C2)[C@H](CN1CC[C@H](O)C1)c1cccc(OCC(N)=O)c1 [Example 26, N-((S)-1-(3-(2-amino-2-oxoethoxy)phenyl)-2-((S)-3-hydroxypyrrolidin-1-yl)ethyl)-N-methyl-2-(2-oxoindolin-6-yl)acetamide]
EC50: ≤ 50 nM

CN(C(=O)Cc1ccc2c(c1)NC(=O)C(C)(C)S2)[C@H](CN1CC[C@H](O)C1)c1cccc(OC(F)(F)F)c1 [Example 143, 2-(2,2-dimethyl-3-oxo-3,4-dihydro-2H-benzo[b][1,4]thiazin-6-yl)-N-((S)-2-((S)-3-hydroxypyrrolidin-1-yl)-1-(3-(trifluoromethoxy)phenyl)ethyl)-N-methylacetamide]
EC50: ≤ 50 nM

CCN(CC)C(=O)COc1cccc([C@@H](CN2CC[C@H](O)C2)N(C)C(=O)Cc2ccc3c(c2)NC(=O)C3)c1 [Example 41, N-((S)-1-(3-(2-(diethylamino)-2-oxoethoxy)phenyl)-2-((S)-3-hydroxypyrrolidin-1-yl)ethyl)-N-methyl-2-(2-oxoindolin-6-yl)acetamide]
EC50: ≤ 50 nM

CN(C(=O)Cc1ccc2c(c1)NC(=O)C2)[C@H](CN1CC[C@H](O)C1)c1cccc(-c2cncs2)c1 [Example 216, N-((S)-2-((S)-3-hydroxypyrrolidin-1-yl)-1-(3-(thiazol-5-yl)phenyl)ethyl)-N-methyl-2-(2-oxoindolin-6-yl)acetamide]
EC50: ≤ 50 nM

CN(C(=O)Cc1ccc2c(c1)NC(=O)C2)[C@H](CN1CC[C@H](O)C1)c1cccc(C(=O)NCC(F)(F)F)c1 [Example 38, 3-((S)-2-((S)-3-hydroxypyrrolidin-1-yl)-1-(N-methyl-2-(2-oxoindolin-6-yl)acetamido)ethyl)-N-(2,2,2-trifluoroethyl)benzamide]
EC50: ≤ 50 nM

CN(C(=O)Cc1ccc2c(c1)NC(=O)C2)C(CN1CC[C@H](O)C1)c1cccc(OCC(=O)O)c1 (stereo partly drawn) [Example 95, (S)-2-(3-(2-(3-hydroxypyrrolidin-1-yl)-1-(N-methyl-2-(2-oxoindolin-6-yl)acetamido)ethyl)phenoxy) acetic acid hydrochloride]
EC50: ≤ 50 nM

CN(C(=O)Cc1ccc2c(c1)NC(=O)CS2)[C@H](CN1CC[C@H](O)C1)c1ccccc1 [Example 7, N-((S)-2-((S)-3-hydroxypyrrolidin-1-yl)-1-phenylethyl)-N-methyl-2-(3-oxo-3,4-dihydro-2H-benzo[b][1,4]thiazin-6-yl)acetamide]
EC50: ≤ 50 nM

CCN(CC)C(=O)c1cccc([C@@H](CN2CC[C@H](O)C2)N(C)C(=O)Cc2ccc3sc(=O)[nH]c3c2)c1 [Example 188, N,N-diethyl-3-((S)-2-((S)-3-hydroxypyrrolidin-1-yl)-1-(N-methyl-2-(2-oxo-2,3-dihydrobenzo[d]thiazol-5-yl)acetamido)ethyl)benzamide]
EC50: ≤ 50 nM

CN(C(=O)Cc1ccc2sc(=O)[nH]c2c1)[C@H](CN1CC[C@H](O)C1)c1cccc(-c2noc(C(F)(F)F)n2)c1 [Example 184, N-((S)-2-((S)-3-hydroxypyrrolidin-1-yl)-1-(3-(5-(trifluoromethyl)-1,2,4-oxadiazol-3-yl)phenyl)ethyl)-N-methyl-2-(2-oxo-2,3-dihydrobenzo[d]thiazol-5-yl)acetamide]
EC50: ≤ 50 nM

Cc1nc(-c2cccc([C@@H](CN3CC[C@H](O)C3)N(C)C(=O)Cc3ccc4c(c3)NC(=O)C4)c2)cs1 [Example 220, N-((S)-2-((S)-3-hydroxypyrrolidin-1-yl)-1-(3-(2-methylthiazol-4-yl)phenyl)ethyl)-N-methyl-2-(2-oxoindolin-6-yl)acetamide]
EC50: ≤ 50 nM

CN(C(=O)Cc1ccc2c(c1)NC(=O)CS2(=O)=O)[C@H](CN1CC[C@H](O)C1)c1cccc(C#N)c1 [Example 6, N-((S)-1-(3-cyanophenyl)-2-((S)-3-hydroxypyrrolidin-1-yl)ethyl)-2-(1,1-dioxido-3-oxo-3,4-dihydro-2H-benzo[b][1,4]thiazin-6-yl)-N-methylacetamide]
EC50: ≤ 50 nM

C#Cc1cccc([C@@H](CN2CC[C@H](O)C2)N(C)C(=O)Cc2ccc3c(c2)NS(=O)(=O)C3)c1 [Example 182, 2-(2,2-dioxido-1,3-dihydrobenzo[c]isothiazol-6-yl)-N-((S)-1-(3-ethynylphenyl)-2-((S)-3-hydroxypyrrolidin-1-yl)ethyl)-N-methylacetamide]
EC50: ≤ 50 nM

CN(C(=O)Cc1ccc2oc(=O)[nH]c2c1)C(CN1CC[C@H](O)C1)c1cccc(OCc2nn[nH]n2)c1 (stereo in doubt) [Example 105, (R)-N-(1-(3-((2H-tetrazol-5-yl)methoxy)phenyl)-2-(3-hydroxypyrrolidin-1-yl)ethyl)-N-methyl-2-(2-oxo-2,3-dihydrobenzo[d]oxazol-5-yl)acetamide]
EC50: ≤ 50 nM

CN(C(=O)Cc1ccc2c(c1)NS(=O)(=O)C2)[C@H](CN1CC[C@H](O)C1)c1cccc(-c2nn[nH]n2)c1 [Example 79, N-((S)-1-(3-(1H-tetrazol-5-yl)phenyl)-2-((S)-3-hydroxypyrrolidin-1-yl)ethyl)-2-(2,2-dioxido-1,3-dihydrobenzo[c]isothiazol-6-yl)-N-methylacetamide]
EC50: ≤ 50 nM

CCN(C(=O)Cc1ccc2c(c1)NC(=O)CS2(=O)=O)[C@H](CN1CC[C@H](O)C1)c1cccc(OC(F)(F)F)c1 [Example 14, 2-(1,1-dioxido-3-oxo-3,4-dihydro-2H-benzo[b][1,4]thiazin-6-yl)-N-ethyl-N-((S)-2-((S)-3-hydroxypyrrolidin-1-yl)-1-(3-(trifluoromethoxy)phenyl)ethyl)acetamide]
EC50: ≥ 1000 nM

CN(C(=O)Cc1ccc2c(c1)NC(=O)CS2(=O)=O)[C@H](CN1CC[C@H](O)C1)c1cccc(-c2ncon2)c1 [Example 212, N-((S)-1-(3-(1,2,4-oxadiazol-3-yl)phenyl)-2-((S)-3-hydroxypyrrolidin-1-yl)ethyl)-2-(1,1-dioxido-3-oxo-3,4-dihydro-2H-benzo[b][1,4]thiazin-6-yl)-N-methylacetamide2,2,2-trifluoroacetate]
EC50: ≤ 50 nM

O=C1CS(=O)(=O)c2ccc(CC(=O)N(C3CC3)[C@H](CN3CC[C@H](O)C3)c3cccc(OC(F)(F)F)c3)cc2N1 [Example 139]
EC50: ≤ 50 nM

Cc1cnc(-c2cccc([C@@H](CN3CC[C@H](O)C3)N(C)C(=O)Cc3ccc4c(c3)NC(=O)C4)c2)s1 [Example 215, N-((S)-2-((S)-3-hydroxypyrrolidin-1-yl)-1-(3-(5-methylthiazol-2-yl)phenyl)ethyl)-N-methyl-2-(2-oxoindolin-6-yl)acetamide]
EC50: ≤ 50 nM

CN(C(=O)Cc1ccc2c(c1)NC(=O)C2)[C@H](CN1CC[C@H](O)C1)c1cccc(-c2ncon2)c1 [Example 185, N-((S)-1-(3-(1,2,4-oxadiazol-3-yl)phenyl)-2-((S)-3-hydroxypyrrolidin-1-yl)ethyl)-N-methyl-2-(2-oxoindolin-6-yl)acetamide 2,2,2-trifluoroacetate]
EC50: ≤ 50 nM
